In patent US20100099614A1, “Antimicrobial Peptides and Methods of Use” (priority 2008, published 2010):
Values after ≈ are worked out from the molar mass of the structure shown. “Also recorded” adds a separate entry of the source. Square brackets hold non-standard residues; d marks the D form. Ends that are not written are not given here. Peptide text beside a SMILES is read from it.

Key:
human erythrocytes = test: Hemolytic activity (MHC), Protocol A; type: cell-based
Experimental: Hemoglobin release was determined spectrophotometrically at 562 nm.
In some experiments the hemolytic titer was determined as the highest 2-fold dilution of peptide that caused hemoglobin release.

Gram-negative bacteria = test: Antibacterial activity (MIC), microtiter dilution; type: cell-based; conditions: for MIC: against Gram-negative bacteria
Experimental: MICs were determined by a standard microtiter dilution method in Mueller Hinton Broth (MHB). Serial dilutions of the 10× compound were added to the microtiter plates in a volume of 10 μL followed by 90 μL of bacteria for an inoculum of 5×10^5 colony-forming units (CFU)/mL. The plates were incubated at 37° C. for 24 h, and the MICs were determined as the lowest peptide concentration that inhibited growth. […]
Alternatively; minimal inhibitory concentrations were determined using a standard microtiter dilution method in a Mueller-Hinton (MH) medium. Briefly, cells were grown overnight at 37° C. in MH broth and diluted in the same medium. Serial dilutions of the peptides were added to the microtiter plates in a volume of 100 μl followed by 10 μl of bacteria for an initial cell concentration of 1×10^5 CFU/ml. Plates were incubated at 37° C. for 24 hours and MICs determined as the lowest peptide concentration that inhibited growth.

Gram-positive bacteria = conditions: gram-positive bacteria, geometric mean MIC
[1] = Peptide hydrophobicity by RP-HPLC retention; type: physicochemical; conditions: 80° C.; for change in hydrophobicity (RP-HPLC retention) relative to PVL: polar face substitution
Experimental: Peptide Synthesis and Purification—Syntheses of the peptides were carried out by solid-phase peptide synthesis using t-butyloxycarbonyl chemistry and MBHA (4-methylbenzhydrylamine) resin (0.97 mmol/g), followed by cleavage of the peptide from the resin as described previously (117-119). However, it is understood in the art that there are other suitable instruments and methods for automated or manual peptide synthesis that could be employed to produce the peptides described herein. Peptide purification was performed by reversed-phase high-performance liquid chromatography (RP-HPLC) on a Zorbax 300 SB-C8 column (250×9.4 mm I.D.; 6.5 μm particle size, 300 Å pore size; Agilent Technologies, Little Falls, Del.) with a linear AB gradient (0.1% acetonitrile/min) at a flow rate of 2 mL/min, where eluent A was 0.2% aqueous trifluoroacetic acid (TFA), pH 2, and eluent B was 0.2% TFA in acetonitrile, where the shallow 0.1% acetonitrile/min gradient started 12% below the acetonitrile concentration required to elute the peptide on injection of analytical sample using a gradient of 1% acetonitrile/min (113). The purity of the peptides was verified by analytical RP-HPLC as described below and further characterized by mass spectrometry and amino acid analysis. Crude and purified peptides were analyzed on an Agilent 1100 series liquid chromatograph. Runs were performed on a Zorbax 300 SB-C8 column (150×2.1 mm I.D.; 5 μm particle size, 300 Å pore size) from Agilent Technologies using a linear AB gradient (1% acetonitrile/min) and a flow rate of 0.25 mL/min, where eluent A was 0.2% aqueous TFA, pH 2, and eluent B was 0.2% TFA in acetonitrile.
Analytical RP-HPLC of Peptides—Peptides were analyzed on an Agilent 1100 series liquid chromatograph (Little Falls, Del.). Runs were performed on a Zorbax 300 SB-C8 column (150×2.1 mm I.D.; 5 μm particle size, 300 Å pore size) from Agilent Technologies using linear AB gradient (1% acetonitrile/min) and a flow rate of 0.25 ml/min, where solvent A was 0.05% aqueous TFA, pH 2 and solvent B was 0.05% TFA in acetonitrile. Temperature profiling analyses were performed in 3° C. increments, from 5° C. to 80° C.

For `CC[C@H](C)[C@H](NC(=O)[C@H](C)NC(=O)[C@H](CCCCN)NC(=O)[C@H](CC(C)C)NC(=O)[C@H](C)NC(=O)[C@@H](NC(=O)[C@H](Cc1c[nH]cn1)NC(=O)[C@H](CC(C)C)NC(=O)[C@@H](NC(=O)[C@@H](NC(=O)[C@H](CCCCN)NC(=O)[C@@H](C)NC(=O)[C@H](C)NC(=O)[C@H](CO)NC(=O)[C@H](CCCCN)NC(=O)[C@H](Cc1ccccc1)NC(=O)[C@@H](NC(=O)[C@H](CCCCN)NC(=O)[C@H](CC(C)C)NC(=O)[C@H](Cc1ccccc1)NC(=O)[C@H](CO)NC(=O)[C@H](CCCCN)NC(=O)[C@H](Cc1c[nH]c2ccccc12)NC(=O)[C@H](CCCCN)NC(C)=O)[C@@H](C)O)[C@@H](C)O)C(C)C)[C@@H](C)O)C(=O)N[C@@H](CO)C(=O)N[C@@H](CO)C(N)=O` [NAD] (HELM PEPTIDE1{[ac].K.W.K.S.F.L.K.T.F.K.S.A.[dA].K.T.V.L.H.T.A.L.K.A.I.S.S.[am]}$$$$V2.0), the “fold decrease in hemolytic activity relative to L-diastereomer” value (human erythrocytes) was 8 fold and the “minimal hemolytic concentration (MHC)” value (human erythrocytes; red cells of human, 12 h) was 250 µg/mL.
With `CC[C@H](C)[C@H](NC(=O)[C@H](C)NC(=O)[C@H](CCCCN)NC(=O)[C@H](CC(C)C)NC(=O)[C@H](C)NC(=O)[C@@H](NC(=O)[C@H](Cc1cnc[nH]1)NC(=O)[C@H](CC(C)C)NC(=O)[C@@H](NC(=O)[C@@H](NC(=O)[C@H](CCCCN)NC(=O)[C@H](CCCCN)NC(=O)[C@H](C)NC(=O)[C@H](CO)NC(=O)[C@H](CCCCN)NC(=O)[C@H](Cc1ccccc1)NC(=O)[C@@H](NC(=O)[C@H](CCCCN)NC(=O)[C@H](CC(C)C)NC(=O)[C@H](Cc1ccccc1)NC(=O)[C@H](CO)NC(=O)[C@H](CCCCN)NC(=O)[C@H](Cc1c[nH]c2ccccc12)NC(=O)[C@H](CCCCN)NC(C)=O)[C@@H](C)O)[C@@H](C)O)C(C)C)[C@@H](C)O)C(=O)N[C@@H](CO)C(=O)N[C@@H](CO)C(N)=O` [NKL] the MIC (Gram-negative bacteria) was 3.1 µg/mL (≈ 1.04 µM), the “fold decrease in hemolytic activity relative to V681” value (human erythrocytes) was > 32 fold and the “minimal hemolytic concentration (MHC)” value (human erythrocytes; human erythrocytes) was “undetectable level; also recorded: no detectable hemolytic activity”.
With `CC[C@H](C)[C@H](NC(=O)[C@H](C)NC(=O)[C@H](CCCCN)NC(=O)[C@H](CC(C)C)NC(=O)[C@H](C)NC(=O)[C@@H](NC(=O)[C@H](Cc1c[nH]cn1)NC(=O)[C@H](CC(C)C)NC(=O)[C@@H](NC(=O)[C@@H](NC(=O)[C@H](CCCCN)NC(=O)[C@@H](NC(=O)[C@H](C)NC(=O)[C@@H](CO)NC(=O)[C@H](CCCCN)NC(=O)[C@H](Cc1ccccc1)NC(=O)[C@@H](NC(=O)[C@H](CCCCN)NC(=O)[C@H](CC(C)C)NC(=O)[C@H](Cc1ccccc1)NC(=O)[C@H](CO)NC(=O)[C@H](CCCCN)NC(=O)[C@H](Cc1c[nH]c2ccccc12)NC(=O)[C@H](CCCCN)NC(C)=O)[C@@H](C)O)C(C)C)[C@@H](C)O)C(C)C)[C@@H](C)O)C(=O)N[C@@H](CO)C(=O)N[C@@H](CO)C(N)=O` [PSD] (HELM PEPTIDE1{[ac].K.W.K.S.F.L.K.T.F.K.[dS].A.V.K.T.V.L.H.T.A.L.K.A.I.S.S.[am]}$$$$V2.0; N-terminus and C-terminus assumed) the “improvement in antimicrobial activity compared to V681” value (Gram-positive bacteria) was 2.7 fold.
For `CC[C@H](C)[C@H](NC(=O)[C@H](C)NC(=O)[C@H](CCCCN)NC(=O)[C@H](CC(C)C)NC(=O)[C@H](C)NC(=O)[C@@H](NC(=O)[C@H](Cc1c[nH]cn1)NC(=O)[C@H](CC(C)C)NC(=O)[C@@H](NC(=O)[C@@H](NC(=O)[C@H](CCCCN)NC(=O)[C@@H](NC(=O)[C@H](C)NC(=O)[C@H](NC(=O)[C@H](CCCCN)NC(=O)[C@H](Cc1ccccc1)NC(=O)[C@@H](NC(=O)[C@H](CCCCN)NC(=O)[C@H](CC(C)C)NC(=O)[C@H](Cc1ccccc1)NC(=O)[C@H](CO)NC(=O)[C@H](CCCCN)NC(=O)[C@H](Cc1c[nH]c2ccccc12)NC(=O)[C@H](CCCCN)NC(C)=O)[C@@H](C)O)C(C)C)C(C)C)[C@@H](C)O)C(C)C)[C@@H](C)O)C(=O)N[C@@H](CO)C(=O)N[C@@H](CO)C(N)=O` [PVD] (HELM PEPTIDE1{[ac].K.W.K.S.F.L.K.T.F.K.[dV].A.V.K.T.V.L.H.T.A.L.K.A.I.S.S.[am]}$$$$V2.0), the “fold decrease in hemolytic activity relative to L-diastereomer” value (human erythrocytes) was 16 fold and the “minimal hemolytic concentration (MHC)” value (human erythrocytes; red cells of human, 12 h) was 125 µg/mL.
In the case of Ac-KWKSFLKTFKSAAKTVLHTALKAISS-NH2 [NAL], the “minimal hemolytic concentration (MHC)” value (human erythrocytes; red cells of human, 12 h) was 31.2 µg/mL.
With Ac-KWKSFLKTFKSALKTVLHTALKAISS-NH2 [NLL] the MIC (Gram-negative bacteria) was 12.7 µg/mL and the “minimal hemolytic concentration (MHC)” value (human erythrocytes; red cells of human, 12 h) was 7.8 µg/mL.
For Ac-KWKSFLKTFKVAVKTVLHTALKAISS-NH2 [PVL], the “minimal hemolytic concentration (MHC)” value (human erythrocytes; red cells of human, 12 h) was 7.8 µg/mL.
In the case of “NSL: V681 analog, L-Ser at position 13 (non-polar face) (KWKSFLKTFKSASKTVLHTALKAISS)”, the “change in hydrophobicity (RP-HPLC retention) relative to NVL” value ([1]; non-polar face substitution) was -8.21 min.
For “PAL: V681 analog, L-Ala at position 11 (polar face) (KWKSFLKTFKAAVKTVLHTALKAISS)”, the “change in hydrophobicity (RP-HPLC retention) relative to PVL” value [1] was “+0.45 min”.
For “PKD: V681 analog, D-Lys at position 11 (KWKSFLKTFK[dK]AVKTVLHTALKAISS-NH2)”, the “improvement on the average MIC value compared to V681” value (Gram-negative bacteria; geometric mean of 6 gram-negative strains) was 3.4 fold.
In the case of “PKL: V681 analog, L-Lys at position 11 (polar face) (KWKSFLKTFKKAVKTVLHTALKAISS)”, the “change in hydrophobicity (RP-HPLC retention) relative to PVL” value [1] was -2.29 min.
